Assay [1] has as its target T1, GPR88 (Homo sapiens, UniProt Q9GZN0).
T1 construct: expressed in transfected cells
The assay is described as follows: Lance Ultra TR-FRET cAMP assay using stable PPLS-HA-GPR88 CHO cells. Type of assay: cell-based. The settings on record: for Emax: CHO; for EC50: stable PPLS-HA-GPR88 CHO cells, value in parentheses beside pEC50. As for the experimental part: The compounds of the present disclosure offer potent agonism to the orphan receptor GPR88. As such, the compounds of the present disclosure provide therapeutic potential for the treatment of striatal associated disorders such as Parkinson's disease, schizophrenia, and alcohol addiction. All compounds were evaluated for the GPR88 agonist activity in the inventors' previously established in vitro GPR88 Lance TR-FRET cAMP assay. See, supra, Jin et al., 2018, Rahman et al., 2020, and Rahman et al., 2021. As will be described, the TR-FRET signal was converted to fmol cAMP by interpolating from the standard cAMP curve. Fmol cAMP was plotted against the log of compound concentration and data were fit to a three-parameter logistic curve to generate maximum response (Emax) and EC50 values.
Lance™ Ultra cAMP assay using stable PPLS-HA-GPR88 CHO cells. All cAMP assays were performed using the inventors' previously published methods. […] ACS Chemical Neuroscience 2016, 7, 1418-1432, which is incorporated by reference herein with regard to such teaching. Stimulation buffer containing 1× Hank's Balanced Salt Solution (HBSS), 5 mM HEPES, 0.1% BSA stabilizer, and 0.5 mM final IBMX was prepared and titrated to pH 7.4 at room temperature. Serial dilutions of the test compounds (5 μL) and 300 nM forskolin (5 μL), both prepared at 4× the desired final concentration in 2% DMSO/stimulation buffer, were added to a 96-well white ½ area microplate (PerkinElmer). A cAMP standard curve was prepared at 4× the desired final concentration in stimulation buffer and 5 μL was added to the assay plate. Stable PPLS-HA-GPR88 CHO cells were lifted with versene and spun at 270 g for 10 minutes. The cell pellet was resuspended in stimulation buffer and 4,000 cells (10 μL) were added to each well except wells containing the cAMP standard curve. After incubating for 30 min at room temperature, Eu-cAMP tracer and uLIGHT-anti-cAMPworking solutions were added per the manufacturer's instructions. After incubation at room temperature for 1 hour, the TR-FRET signal (ex 337 nm) was read on a CLARIOstar multimode plate reader (BMG Biotech, Cary, NC).
Data Analysis. The TR-FRET signal (665 nm) was converted to fmol cAMP by interpolating from the standard cAMP curve. Fmol cAMP was plotted against the log of compound concentration and data were fit to a three-parameter logistic curve to generate EC50 values (Prism, version 6.0, GraphPad Software, Inc., San Diego, CA).
A general note: Time-resolved FRET reads energy transfer from a long-lived donor to a nearby acceptor.

The conditions of assay [2]: rats, intraperitoneally, dose-dependent; cited from earlier work.
The conditions of assay [3]: rats, intraperitoneally; cited from earlier work.

T1 sequence (Q9GZN0 whole entry): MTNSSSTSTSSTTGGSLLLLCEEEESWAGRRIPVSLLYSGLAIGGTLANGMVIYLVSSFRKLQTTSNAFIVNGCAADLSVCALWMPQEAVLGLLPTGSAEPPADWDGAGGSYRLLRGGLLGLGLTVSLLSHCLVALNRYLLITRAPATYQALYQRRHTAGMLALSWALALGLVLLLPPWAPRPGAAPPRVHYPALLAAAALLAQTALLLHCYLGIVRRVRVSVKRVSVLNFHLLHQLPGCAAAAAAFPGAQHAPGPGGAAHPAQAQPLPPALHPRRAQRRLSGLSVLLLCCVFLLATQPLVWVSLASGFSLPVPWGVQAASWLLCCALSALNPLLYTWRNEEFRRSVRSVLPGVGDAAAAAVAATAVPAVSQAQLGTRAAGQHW

The term Emax denotes the greatest response seen or fitted, relative to the assay's reference. Broadly, the EC50 is the midpoint of the concentration-response curve. Turning to `CO[C@H](C)[C@H](N)CN(C(=O)N[C@@H](C)c1ccccc1)c1ccc(-c2ccc(C)cc2)cc1` [Compound 55, 3-[(2R,3R)-2-Amino-3-methoxybutyl]-1-[(1 S)-1-phenylethyl]-3-{4′-methyl-[1,1′-biphenyl]-4-yl}urea], in assay [1], the Emax worked out at 114 ± 6% and the 50% effective concentration (EC50) is 0.457 µM.
The matching figures for `CCc1ccc(-c2ccc(N(C[C@@H](N)[C@@H](C)OC)C(=O)N[C@@H](C)c3ccccc3)cc2)cc1` [Compound 56, 3-[(2R,3R)-2-Amino-3-methoxybutyl]-1-[(1 S)-1-phenylethyl]-3-{4′-ethyl-[1,1′-biphenyl]-4-yl}urea]: 116 ± 9% and 0.331 µM.
Take `COc1ccc(-c2ccc(N(C[C@@H](N)[C@@H](C)OC)C(=O)N[C@@H](C)c3ccccc3)cc2)cc1` [Compound 57, 3-[(2R,3R)-2-Amino-3-methoxybutyl]-1-[(1 S)-1-phenylethyl]-3-{4′-methoxy-[1,1′-biphenyl]-4-yl}urea]: in assay [1], the maximal response (Emax) was determined as 101 ± 3% and the EC50 is 0.891 µM.
In the case of `CCOc1ccc(-c2ccc(N(C[C@@H](N)[C@@H](C)OC)C(=O)N[C@@H](C)c3ccccc3)cc2)cc1` [Compound 58, 3-[(2R,3R)-2-Amino-3-methoxybutyl]-1-[(1 S)-1-phenylethyl]-3-{4′-ethoxy-[1,1′-biphenyl]-4-yl}urea], in assay [1], the Emax is 102 ± 2% and the EC50 was 0.676 µM.
Turning to `CO[C@H](C)[C@H](N)CN(C(=O)N[C@@H](C)c1ccccc1)c1ccc(-c2ccc(OC(C)C)cc2)cc1` [Compound 59, 3-[(2R,3R)-2-Amino-3-methoxybutyl]-1-[(1 S)-1-phenylethyl]-3-[4′-(propan-2-yloxy)-[1,1′-biphenyl]-4-yl]urea], in assay [1], the Emax is 100 ± 4% and the EC50 was 0.407 µM.
Consider `CO[C@H](C)[C@H](N)CN(C(=O)N[C@@H](C)c1ccccc1)c1ccc(C#CCC(C)C)cc1` [Compound 60, 3-[(2R,3R)-2-amino-3-methoxybutyl]-3-[4-(4-methylpent-1-yn-1-yl)phenyl]-1-[(1 S)-1-phenylethyl]urea], for which, in assay [1], the Emax was 103 ± 4% and the EC50 was 0.363 µM.
In the case of `COCc1ccc(-c2ccc(N(C[C@@H](N)[C@@H](C)OC)C(=O)[C@@H]3C[C@H]3c3ccccn3)cc2)cc1` [RTI-13951-33], in assay [2], the alcohol intake entry is reported as “significantly reduced” and the alcohol self-administration entry was “significantly reduced”. Further, the sucrose self-administration result in assay [3] is recorded as “without effects”.
